Patent US20040235855A1, “Phospholipase C inhibitors for use in treating inflammatory disorders” (priority 2003, published 2004)

The compounds below were run against T1, human PLC-β2 (Homo sapiens, UniProt Q00722) (assay: PLC assay using FlashPlates (96-well, immobilized [3H]PIP2 substrate)). Details: purified recombinant human PLC-β2 or cytosolic human PLC-β2; hydrolysis of [3H]PIP2.
T1 construct: made in house; host or cells: Sf9 cells (Spodoptera frugiperda), recombinant baculovirus
Format: biochemical
Text: The hydrolysis of phosphatidylinositol-4,5-bisphosphate (PIP2) by a specific phospholipase C-β2 (PLC-β2) produces two intracellular messengers, diacylglycerol (DAG) and inositol 1,4,5-trisphosphate (IP3), which mediate the activation of protein kinase C and intracellular Ca^2+ release. A conventional organic solvent extraction method is widely used for PLC assays to isolate IP3 from the substrate PIP2. The conventional PLC-β2 assay, however is terminated by addition of acidified organic solvents and subsequent extraction and phase separation. […] Accordingly, a preferred method to test the compounds of the present invention, was developed utilizing a 96-well plate assay for PLC-β2 using immobilized radiolabeled substrate to quantitatively measure the reduction in the substrate level without a need for organic solvent extraction. The automated PLC-β2 assay described herein provides a convenient method for quantitative measurement of phospholipase C activities in a high throughput fashion. Ninety-six well Phospholipid FlashPlates were coated with 0.2 mL of 50 mM Tris/HCl (pH 7.4), 0.01% Ac-BSA and 50,000 cpm of […] (phosphatidylinositol-4,5-bisphosphate) at 4° C. for 72 h. The wells were aspirated and washed twice with PBS. The reactions were conducted directly in the wells in PLC reaction buffer containing 50 mM Tris/HCl (pH 7.2), 2.75 mM EDTA (pH 7.3), 80 mM KCl, 10 mM LiCl, 0.04% DOC and 2 mM CaCl2 in the absence or presence of the purified recombinant human PLC-β2 (prepared as described hereafter) or cytosolic human PLC-β2 from […]. Reduction of radioactivity was monitored by a Packard TopCount instrument (Packard Instrument Company, Conn., USA). […] The cells were grown in Grace's media supplemented with 10% (v/v) fetal bovine serum, 3.3 g/l yeastolate, 3.3 g/l lactalbumin hydrosylate, glutamine (6.4 mM final), 50 μg/ml gentamicin, and 50 μg/ml kanamycin. Suspension of Sf9 cells (1.0×10^6 cells/ml) were infected with 5 pfu/cell of recombinant baculovirus encoding PLC-β2 and incubated at 27° C. for 72 h. The cells were collected by centrifugation (500×g, 7 min, 4° C.) and disrupted by hypotonic lysis buffer containing 20 mM Tris/HCl, pH 7.4, 5 mM MgCl2, 2 mM EGTA, 200 μM PMSF, 200 μM benzamidine and 1 μM pepstatin A. The lysate was sonicated on ice and the nuclei and unbroken cells removed by centrifigation (500×g, 5 min, 4C.). The supernatant was recovered and clarified by centrifugation (34,000 rpm, 60 min, 4C.). The supernatant was used as a crude cytosolic fraction (Paterson, A., Boyer, J. L., Watts, V. J., Morris, A. J., Price, […]. (1995) Concentration of enzyme-dependent activation of PLC β1 and PLC β2 by Gα11 and βγ subunits. Cellular Signalling 7, 709-720). Crude cytosol prepared from Sf9 cells expressing PLC-β2 was purified initially by chromatography on a 10 ml column of Q-Sepharose FF, equilibrated in buffer A (25 mM HEPES, pH 7.2,2 mM DTT, 2 mM EDTA, 2 mM EGTA, 200 μM PMSF, 200 μM benzamidine, 1 μM pepstatin A containing 10 mM NaCl). The column was washed with 20 ml of equilibration buffer and eluted with a 200-ml gradient of 110-410 mM NaCl in buffer A. The fractions containing PLC activity were pooled and diluted with buffer A. The diluted enzyme was applied to a 4 ml column of heparin-SepharoseCL-6B equilibrated in buffer A and the column washed with 70 ml of buffer A. The column was eluted with 80 ml of gradient of 0-1.0 M NaCl in buffer A, the column eluate collected in 3 ml fractions. […]

T1 sequence (Q00722 whole entry): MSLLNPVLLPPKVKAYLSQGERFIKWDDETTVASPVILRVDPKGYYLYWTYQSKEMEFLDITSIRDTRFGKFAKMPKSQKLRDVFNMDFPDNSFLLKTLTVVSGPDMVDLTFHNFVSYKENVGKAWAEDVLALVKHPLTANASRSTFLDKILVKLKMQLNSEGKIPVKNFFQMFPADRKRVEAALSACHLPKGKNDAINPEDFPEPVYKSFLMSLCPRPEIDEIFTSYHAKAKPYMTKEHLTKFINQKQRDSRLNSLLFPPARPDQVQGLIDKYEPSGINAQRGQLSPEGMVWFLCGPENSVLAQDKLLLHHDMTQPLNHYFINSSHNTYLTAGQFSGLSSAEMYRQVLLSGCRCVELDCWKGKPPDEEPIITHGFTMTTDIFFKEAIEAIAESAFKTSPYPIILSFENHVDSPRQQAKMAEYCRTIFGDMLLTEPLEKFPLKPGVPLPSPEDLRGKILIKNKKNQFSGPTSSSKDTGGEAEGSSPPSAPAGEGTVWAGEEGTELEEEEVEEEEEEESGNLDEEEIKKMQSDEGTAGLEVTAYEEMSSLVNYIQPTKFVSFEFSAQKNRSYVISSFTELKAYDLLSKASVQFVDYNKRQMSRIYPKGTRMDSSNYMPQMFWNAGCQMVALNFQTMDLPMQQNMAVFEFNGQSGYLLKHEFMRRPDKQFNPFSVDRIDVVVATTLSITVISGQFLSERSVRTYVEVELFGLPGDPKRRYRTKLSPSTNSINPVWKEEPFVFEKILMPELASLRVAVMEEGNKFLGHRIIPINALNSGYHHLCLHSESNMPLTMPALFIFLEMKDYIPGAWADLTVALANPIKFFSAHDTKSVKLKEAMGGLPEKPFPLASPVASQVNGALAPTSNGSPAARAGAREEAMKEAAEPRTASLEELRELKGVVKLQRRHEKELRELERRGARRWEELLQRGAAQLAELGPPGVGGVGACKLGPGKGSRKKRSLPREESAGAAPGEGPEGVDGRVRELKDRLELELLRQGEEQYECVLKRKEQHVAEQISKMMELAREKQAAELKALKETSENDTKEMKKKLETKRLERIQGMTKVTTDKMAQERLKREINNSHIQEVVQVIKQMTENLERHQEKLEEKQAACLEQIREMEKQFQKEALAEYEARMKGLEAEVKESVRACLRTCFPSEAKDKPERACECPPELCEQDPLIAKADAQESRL

Row | IC50 [µM] | Structure (SMILES)
1 | > 25 | O=C(Nc1ccccc1)Nc1cc(C(=O)N2CCNCC2)ccc1N1CCN(Cc2ccccc2)CC1 [Cpd 50, N-phenyl-N′-[2-[4-(phenylmethyl)-1-piperazinyl]-5-(1-piperazinylcarbonyl)phenyl]-urea]
2 | > 25 | O=C(Nc1ccccc1)Nc1cc(C(=O)N2CCNCC2)ccc1N1CCN(C2CCCCC2)CC1 [Cpd 51, N-[2-(4-cyclohexyl-1-piperazinyl)-5-(1-piperazinylcarbonyl)phenyl]-N′-phenylurea]
3 | > 25 | O=C(Nc1cc(C(=O)N2CCNCC2)ccc1N1CCN(Cc2ccccc2)CC1)NC1CCCCC1 [Cpd 52, N-cyclohexyl-N′-[2-[4-(phenylmethyl)-1-piperazinyl]-5-(1-piperazinylcarbonyl)phenyl]-urea]
4 | > 25 | CC(c1ccccc1)N1CCN(c2ccc(C(=O)N3CCNCC3)cc2NC(=O)NC2CCCCC2)CC1 (centres unmarked) [Cpd 53, N-cyclohexyl-N′-[2-[4-(1-phenylethyl)-1-piperazinyl]-5-(1-piperazinylcarbonyl)phenyl]-urea]
5 | > 25 | O=C(Nc1cc(C(=O)N2CCNCC2)ccc1N1CCN(C2CCCCC2)CC1)NC1CCCCC1 [Cpd 54, N-cyclohexyl-N′-[2-(4-cyclohexyl-1-piperazinyl)-5-(1-piperazinylcarbonyl)phenyl]-urea]
6 | > 25 | COc1ccccc1N1CCN(c2ccc(C(=O)N3CCNCC3)cc2NC(=O)NC2CCCCC2)CC1 [Cpd 55, N-cyclohexyl-N′-[2-[4-(2-methoxyphenyl)-1-piperazinyl]-5-(1-piperazinylcarbonyl)phenyl]-urea]
7 | > 25 | CCCCNC(=O)Nc1cc(C(=O)N2CCNCC2)ccc1N1CCN(C(c2ccccc2)c2ccccc2)CC1 [Cpd 56, N-butyl-N′-[2-[4-(diphenylmethyl)-1-piperazinyl]-5-(1-piperazinylcarbonyl)phenyl]-urea]
8 | 2.5 | O=C(Nc1ccccc1F)Nc1cc(C(=O)N2CCNCC2)ccc1N1CCN(C(c2ccccc2)c2ccccc2)CC1 [Cpd 57, N-[2-[4-(diphenylmethyl)-1-piperazinyl]-5-(1-piperazinylcarbonyl)phenyl]-N′-(2-fluorophenyl)urea]
9 | 7.8 | CN(C)c1ccc(NC(=O)Nc2cc(C(=O)N3CCNCC3)ccc2N2CCN(C(c3ccccc3)c3ccccc3)CC2)cc1 [Cpd 58, N-[4-(dimethylamino)phenyl]-N′-[2-[4-(diphenylmethyl)-1-piperazinyl]-5-(1-piperazinylcarbonyl)phenyl]-urea]
10 | 5.4 | COc1ccccc1NC(=O)Nc1cc(C(=O)N2CCNCC2)ccc1N1CCN(C(c2ccccc2)c2ccccc2)CC1 [Cpd 59, N-[2-[4-(diphenylmethyl)-1-piperazinyl]-5-(1-piperazinylcarbonyl)phenyl]-N′-(2-methoxyphenyl)-urea]
11 | 0.95 | O=C(Nc1ccccc1)Nc1cc(C(=O)N2CCNCC2)ccc1N1CCN(C(c2ccccc2)c2ccc(Cl)cc2)CC1 (centres unmarked) [Cpd 60, N-[2-[4-[(4-chlorophenyl)phenylmethyl]-1-piperazinyl]-5-(1-piperazinylcarbonyl)phenyl]-N′-phenyl-urea]
12 | 4.3 | O=C(/C=C/c1ccccc1)NC(=O)Nc1cc(C(=O)N2CCNCC2)ccc1N1CCN(C(c2ccccc2)c2ccccc2)CC1 [Cpd 61, N-[2-[4-(diphenylmethyl)-1-piperazinyl]-5-(1-piperazinylcarbonyl)phenyl]-N′-[(2E)-1-oxo-3-phenyl-2-propenyl]-urea]
13 | > 25 | CC(C)(C)NC(=O)Nc1cc(C(=O)N2CCNCC2)ccc1N1CCN(C(c2ccccc2)c2ccccc2)CC1 [Cpd 62, N-(1,1-dimethylethyl)-N′-[2-[4-(diphenylmethyl)-1-piperazinyl]-5-(1-piperazinylcarbonyl)phenyl]-urea]
14 | 13.7 | O=C(Nc1cc(C(=O)N2CCNCC2)ccc1N1CCN(C(c2ccccc2)c2ccccc2)CC1)NC1CCCC1 [Cpd 63, N-cyclopentyl-N′-[2-[4-(diphenylmethyl)-1-piperazinyl]-5-(1-piperazinylcarbonyl)phenyl]-urea]
